# Measured values: US20240393292A1, “ALLERGY ANTIGEN AND EPITOPE THEREOF” (HOYU CO., LTD., priority 2019, published 2024)
# Test system: IgE antibodies from patients
# Experiment: Wheat epitope mapping (2): overlapping 10-amino-acid peptide fragments shifted by one amino acid;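 on Rank of partial sequence as epitope binding to IgE antibody: key = sequence deemed particularly important within the common 15-residue sequence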;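 on epitope sequence binding to IgE antibody, rank (Key/Preferably/More preferably): key of grades: preferably = shorter partial sequence still acting as epitope; more preferably = sequence improving IgE binding; key = particularly important sequence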
# Type: binding, human
# How it was run: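 Cellulose-bound 10-mer peptides offset by one residue were probed with patient serum IgE and detected by chemiluminescence. Secondary-antibody-only signals were subtracted per peptide. Residual binding was expressed as % of the parent overlapping peptide, scored as none (<30%), poor (30–<50%), somewhat poor (50–<70%) or retained (≥70%).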
# [1] = serum of patient P8 (WDEIA), sequence without X
# [2] = serum of patient P16 (WDEIA), partial sequence
# [3] = serum of patient P27 (WDEIA), sequence without X
# [4] = serum of patient P12 (WDEIA), sequence without X
# [5] = serum of patient P26 (WDEIA), sequence without X
# [6] = serum of patient G5 (adult, general immediate type allergy to wheat)
# [7] = serum of patient P50 (child, general immediate type allergy to wheat), sequence without X
# [8] = serum of patient P31 (WDEIA), sequence without X
# [9] = serum of patient G5 (adult, general immediate type allergy to wheat), sequence without X
substance,measurement,setting,value
1942 (QQFPGQQ; REGION 1..7: note = epitope) [compound 1942],"epitope sequence binding to IgE antibody, rank (Key/Preferably/More preferably)",serum of patient P21 (WDEIA),Preferably
1307 (NVEN; REGION 1..4: note = epitope) [compound 1307],"Epitope sequence binding to IgE antibody, rank of the sequence",[1],Key
2505 (SQVSF; REGION 1..5: note = epitope) [compound 2505],"Epitope sequence binding to IgE antibody, rank of the sequence",[2],Key
1703 (EAANFT; REGION 1..6: note = epitope) [compound 1703],Rank of partial sequence as epitope binding to IgE antibody,[3],Key
2680 (YKGPTL; REGION 1..6: note = epitope) [compound 2680],"Epitope sequence binding to IgE antibody, rank of the sequence","serum of patient P17 (WDEIA), partial sequence",Key
1817 (SGKELE; REGION 1..6: note = epitope) [compound 1817],"epitope sequence binding to IgE antibody, rank (Key/Preferably/More preferably)",serum of patient P32 (WDEIA),Key
1206 (QQFPPQQP; REGION 1..8: note = epitope) [compound 1206],"Epitope sequence binding to IgE antibody, rank of the sequence","serum of patient P34 (WDEIA), sequence without X",Preferably
1807 (PKFLKNG; REGION 1..7: note = epitope) [compound 1807],"epitope sequence binding to IgE antibody, rank (Key/Preferably/More preferably)",serum of patient P22 (WDEIA),Key
2415 (IDRCAYV; REGION 1..7: note = epitope) [compound 2415],"Epitope sequence binding to IgE antibody, rank of the sequence (Key/Preferably/More preferably)","serum of patient G7 (adult, general immediate type allergy to wheat), sequence without X",Preferably
1927 (QFPGQQ; REGION 1..6: note = epitope) [compound 1927],"epitope sequence binding to IgE antibody, rank (Key/Preferably/More preferably)",serum of patient P14 (WDEIA),Key
1382 (PWQQQPLPP; REGION 1..9: note = epitope) [compound 1382],"Epitope sequence binding to IgE antibody, rank of the sequence",[4],Key
1891 (YTVRTL; REGION 1..6: note = epitope) [compound 1891],"epitope sequence binding to IgE antibody, rank (Key/Preferably/More preferably)","serum of patient G7 (adult, general immediate type allergy to wheat)",Key
1383 (PPQQQ; REGION 1..5: note = epitope) [compound 1383],"Epitope sequence binding to IgE antibody, rank of the sequence",[4],Key
1242 (PQQPPC; REGION 1..6: note = epitope) [compound 1242],"Epitope sequence binding to IgE antibody, rank of the sequence",[5],Preferably
1784 (LKKVGYNP; REGION 1..8: note = epitope) [compound 1784],"epitope sequence binding to IgE antibody, rank (Key/Preferably/More preferably)",[6],Key
1287 (ILPRS; REGION 1..5: note = epitope) [compound 1287],"Epitope sequence binding to IgE antibody, rank of the sequence",[7],Key
1670 (YNPDKVPFV; REGION 1..9: note = epitope) [compound 1670],Rank of partial sequence as epitope binding to IgE antibody,"serum of patient G4 (adult, general immediate type allergy to wheat), sequence without X",Preferably
1913 (QVPLVQQ; REGION 1..7: note = epitope) [compound 1913],"epitope sequence binding to IgE antibody, rank (Key/Preferably/More preferably)",serum of patient P8 (WDEIA),Key
2699 (YKGPTL; REGION 1..6: note = epitope) [compound 2699],"Epitope sequence binding to IgE antibody, rank of the sequence","serum of patient G8 (adult, general immediate type allergy to wheat), partial sequence",Key
1493 (YLQPQQPIS; REGION 1..9: note = epitope) [compound 1493],Rank of partial sequence as epitope binding to IgE antibody,"serum of patient P36 (WDEIA), sequence without X",Key
1624 (FVPISG; REGION 1..6: note = epitope) [compound 1624],Rank of partial sequence as epitope binding to IgE antibody,"serum of patient P25 (WDEIA), sequence without X",Key
2275 (KRVIERFEK; REGION 1..9: note = epitope) [compound 2275],"Epitope sequence binding to IgE antibody, rank of the sequence (Key/Preferably/More preferably)",[1],Key
1687 (EAANFT; REGION 1..6: note = epitope) [compound 1687],Rank of partial sequence as epitope binding to IgE antibody,"serum of patient P5 (WDEIA), sequence without X",Key
1777 (KEVSSYLKK; REGION 1..9: note = epitope) [compound 1777],"epitope sequence binding to IgE antibody, rank (Key/Preferably/More preferably)","serum of patient G2 (adult, general immediate type allergy to wheat)",Key
2357 (HDIDRCAY; REGION 1..8: note = epitope) [compound 2357],"Epitope sequence binding to IgE antibody, rank of the sequence (Key/Preferably/More preferably)","serum of patient P18 (WDEIA), sequence without X",Key
1601 (AQLEAIRSL; REGION 1..9: note = epitope) [compound 1601],Rank of partial sequence as epitope binding to IgE antibody,"serum of patient P3 (WDEIA), sequence without X",Preferably
2371 (HDIDRCAY; REGION 1..8: note = epitope) [compound 2371],"Epitope sequence binding to IgE antibody, rank of the sequence (Key/Preferably/More preferably)",[5],Key
2685 (YKGPTL; REGION 1..6: note = epitope) [compound 2685],"Epitope sequence binding to IgE antibody, rank of the sequence","serum of patient P27 (WDEIA), partial sequence",Preferably
2643 (KEAAEMN; REGION 1..7: note = epitope) [compound 2643],"Epitope sequence binding to IgE antibody, rank of the sequence","serum of patient P20 (WDEIA), partial sequence",Preferably
1244 (PIQQQP; REGION 1..6: note = epitope) [compound 1244],"Epitope sequence binding to IgE antibody, rank of the sequence",[8],Key
1540 (VQQQQFLG; REGION 1..8: note = epitope) [compound 1540],Rank of partial sequence as epitope binding to IgE antibody,"serum of patient P17 (WDEIA), sequence without X",Preferably
1746 (EAANFTS; REGION 1..7: note = epitope) [compound 1746],"epitope sequence binding to IgE antibody, rank (Key/Preferably/More preferably)",[6],Preferably
2296 (GIDK; REGION 1..4: note = epitope) [compound 2296],"Epitope sequence binding to IgE antibody, rank of the sequence (Key/Preferably/More preferably/Further preferably)",[7],Key
1231 (PQQPP; REGION 1..5: note = epitope) [compound 1231],"Epitope sequence binding to IgE antibody, rank of the sequence","serum of patient P13 (WDEIA), sequence without X",Key
2655 (EAAEMNK; REGION 1..7: note = epitope) [compound 2655],"Epitope sequence binding to IgE antibody, rank of the sequence","serum of patient P32 (WDEIA), partial sequence",Preferably
2710 (YKIGG; REGION 1..5: note = epitope) [compound 2710],"Epitope sequence binding to IgE antibody, rank of the sequence",[2],Key
1676 (KVPFVPISG; REGION 1..9: note = epitope) [compound 1676],Rank of partial sequence as epitope binding to IgE antibody,[9],Preferably
1573 (PQQPQQPFP; REGION 1..9: note = epitope) [compound 1573],Rank of partial sequence as epitope binding to IgE antibody,"serum of patient P16 (WDEIA), sequence without X",Preferably
2234 (RNYR; REGION 1..4: note = epitope) [compound 2234],"Epitope sequence binding to IgE antibody, rank of the sequence (Key/Preferably/More preferably)","serum of patient P29 (WDEIA), sequence without X",Key
2584 (QLVQ; REGION 1..4: note = epitope) [compound 2584],"Epitope sequence binding to IgE antibody, rank of the sequence","serum of patient P31 (WDEIA), partial sequence",Key
2641 (KEAAEM; REGION 1..6: note = epitope) [compound 2641],"Epitope sequence binding to IgE antibody, rank of the sequence","serum of patient P14 (WDEIA), partial sequence",Key
1474 (LQPQQPIS; REGION 1..8: note = epitope) [compound 1474],Rank of partial sequence as epitope binding to IgE antibody,[3],Preferably
1842 (TVRTLQ; REGION 1..6: note = epitope) [compound 1842],"epitope sequence binding to IgE antibody, rank (Key/Preferably/More preferably)",serum of patient P8 (WDEIA),Key
1218 (PIQQQP; REGION 1..6: note = epitope) [compound 1218],"Epitope sequence binding to IgE antibody, rank of the sequence","serum of patient P9 (WDEIA), sequence without X",Preferably
2222 (RLLRGIRNY; REGION 1..9: note = epitope) [compound 2222],"Epitope sequence binding to IgE antibody, rank of the sequence (Key/Preferably/More preferably)",[1],Key
2731 (YKIGGI; REGION 1..6: note = epitope) [compound 2731],"Epitope sequence binding to IgE antibody, rank of the sequence","serum of patient P28 (WDEIA), partial sequence",Key
1866 (TVRTLQR; REGION 1..7: note = epitope) [compound 1866],"epitope sequence binding to IgE antibody, rank (Key/Preferably/More preferably)",serum of patient P27 (WDEIA),Key
2238 (LLRGIRNYRV; REGION 1..10: note = epitope) [compound 2238],"Epitope sequence binding to IgE antibody, rank of the sequence (Key/Preferably/More preferably)",[8],Key
1871 (VRTLQR; REGION 1..6: note = epitope) [compound 1871],"epitope sequence binding to IgE antibody, rank (Key/Preferably/More preferably)",serum of patient P29 (WDEIA),Key
1904 (QVPLVQQ; REGION 1..7: note = epitope) [compound 1904],"epitope sequence binding to IgE antibody, rank (Key/Preferably/More preferably)",serum of patient P4 (WDEIA),Preferably
1677 (PFVPISG; REGION 1..7: note = epitope) [compound 1677],Rank of partial sequence as epitope binding to IgE antibody,[9],Key
2245 (SRLLRGIR; REGION 1..8: note = epitope) [compound 2245],"Epitope sequence binding to IgE antibody, rank of the sequence (Key/Preferably/More preferably/Further preferably)",[7],Preferably
2642 (KEAAEM; REGION 1..6: note = epitope) [compound 2642],"Epitope sequence binding to IgE antibody, rank of the sequence",[2],Key
2294 (LGGIDKRVIE; REGION 1..10: note = epitope) [compound 2294],"Epitope sequence binding to IgE antibody, rank of the sequence (Key/Preferably/More preferably/Further preferably)",[7],More preferably
